The text below walks through data of the Biogen ADME set (Fang et al. 2023).

The structures appear in SMILES notation. Values after ≈ are worked out from the molar mass of the structure shown. Where only a bound is given, the exact number is not on record here.

The conditions of the series: for aqueous solubility: pH 6.8.

Broadly, the aqueous solubility is how much of the substance goes into solution per volume. A low value points to a poorly soluble substance. `CC1(C)Oc2ccc(Cl)cc2[C@@H]2O[C@@H]3CCNC[C@@H]3C[C@H]21`: the MDR1-MDCK efflux ratio was determined as 11.3; the intrinsic clearance, human liver microsomes is no more than 4.74 mL/min/kg; the intrinsic clearance, rat liver microsomes worked out at 103 mL/min/kg; the aqueous solubility worked out at 42.5 µg/mL (≈ 138 µM).

`Cc1n[nH]c(C)c1CCCN(C)c1cncc(C(=O)N(C)C)n1`: the MDR1-MDCK efflux ratio was 93.7; the intrinsic clearance, human liver microsomes turned out to be 87.4 mL/min/kg; the intrinsic clearance, rat liver microsomes came out at 529 mL/min/kg.

As to `c1ccc(-c2noc(NC3CC3)n2)cc1`, the MDR1-MDCK efflux ratio was determined as 0.809; the intrinsic clearance, human liver microsomes came to 83.2 mL/min/kg; the intrinsic clearance, rat liver microsomes was 178 mL/min/kg; the aqueous solubility is 28.3 µg/mL (≈ 141 µM).

Regarding `N#Cc1cc(Oc2ccc3c(c2)CCC3)ncn1`, the MDR1-MDCK efflux ratio worked out at 0.408; the intrinsic clearance, human liver microsomes is 66.7 mL/min/kg; the intrinsic clearance, rat liver microsomes was 283 mL/min/kg.

For `Cc1noc(C)c1COc1ccc2ncccc2c1`, the intrinsic clearance, human liver microsomes was 86.8 mL/min/kg and the intrinsic clearance, rat liver microsomes came out at 337 mL/min/kg.

`CC(=O)c1ccc(-c2ccc(-c3nn[nH]n3)cc2)cc1`: the intrinsic clearance, human liver microsomes was 11.1 mL/min/kg and the intrinsic clearance, rat liver microsomes amounted to 52.7 mL/min/kg.

In the case of `Cc1nn(C(C)C)c(C)c1S(=O)(=O)NCC1CCN(C(=O)C2CC2)CC1`, the MDR1-MDCK efflux ratio is 83.8; the intrinsic clearance, human liver microsomes came out at 92.1 mL/min/kg; the intrinsic clearance, rat liver microsomes was 445 mL/min/kg.

Regarding `Nc1nc(N)c2c(Cl)c(Br)ccc2n1`, the MDR1-MDCK efflux ratio is 0.574; the intrinsic clearance, human liver microsomes is 7.36 mL/min/kg; the intrinsic clearance, rat liver microsomes amounted to 84.7 mL/min/kg; the aqueous solubility was 24.6 µg/mL (≈ 90 µM).

As for `CC1CCN(Cc2ccc(NC(=O)c3ccccn3)cc2)CC1`, the MDR1-MDCK efflux ratio stood at 0.675; the intrinsic clearance, human liver microsomes is no more than 4.74 mL/min/kg; the intrinsic clearance, rat liver microsomes stood at 16.2 mL/min/kg; the aqueous solubility stood at 40.8 µg/mL (≈ 132 µM).

As for `CCc1oc2c(-n3cnnc3)cccc2c1C`, the MDR1-MDCK efflux ratio turned out to be 0.587; the intrinsic clearance, human liver microsomes was 111 mL/min/kg; the intrinsic clearance, rat liver microsomes was 169 mL/min/kg; the aqueous solubility came out at 22.6 µg/mL (≈ 99.4 µM).

Turning to `COc1cccc(/C=C2/N=C(c3ccccc3C)NC2=O)c1OC`, the aqueous solubility was 0.35 µg/mL (≈ 1.09 µM).

With `COc1ccc(C)cc1NC(=O)CN1CCc2ccccc2C1`, the MDR1-MDCK efflux ratio came out at 0.497; the intrinsic clearance, human liver microsomes came to 191 mL/min/kg; the intrinsic clearance, rat liver microsomes came to 2320 mL/min/kg; the aqueous solubility worked out at 15.5 µg/mL (≈ 50 µM).

For `C=CC(=O)N1CCC[C@H](n2c(=O)n(-c3ccc(Oc4ccccc4)cc3)c3c(N)ncnc32)C1`, the MDR1-MDCK efflux ratio worked out at 5.79; the fraction unbound, human plasma worked out at 0.0963; the fraction unbound, rat plasma was found to be 0.0189; the intrinsic clearance, human liver microsomes is 166 mL/min/kg. Besides, the intrinsic clearance, rat liver microsomes was 516 mL/min/kg and the aqueous solubility was 56.4 µg/mL (≈ 123 µM).

As to `Cc1cccc(-c2ncc(CNCc3ccccc3-n3cccn3)cn2)c1`, the MDR1-MDCK efflux ratio came out at 0.593; the intrinsic clearance, human liver microsomes was 303 mL/min/kg; the intrinsic clearance, rat liver microsomes is 3450 mL/min/kg; the aqueous solubility is 22.4 µg/mL (≈ 62.9 µM).

With `Cc1ccc(CN(C)c2ncnc3c2cnn3C)o1`, the MDR1-MDCK efflux ratio turned out to be 0.657; the intrinsic clearance, human liver microsomes was 19.2 mL/min/kg; the intrinsic clearance, rat liver microsomes is 223 mL/min/kg; the aqueous solubility stood at 40.9 µg/mL (≈ 159 µM).

`CS(=O)(=O)CCN1CCC(n2c(=O)[nH]c3ccccc32)CC1` returned an intrinsic clearance, human liver microsomes of no more than 4.74 mL/min/kg; an intrinsic clearance, rat liver microsomes of no more than 10.7 mL/min/kg; an aqueous solubility of 62.9 µg/mL (≈ 194 µM).

Consider `CNCc1cc(NC)nc(C2CCCN2C(=O)C(C)(C)c2ccc(C)cc2)n1` (stereo not drawn), for which the MDR1-MDCK efflux ratio worked out at 36.8; the intrinsic clearance, human liver microsomes stood at 16.2 mL/min/kg; the intrinsic clearance, rat liver microsomes turned out to be 153 mL/min/kg.
